Data set [1] addresses T1, Cytochrome P450 2C8 (Homo sapiens, UniProt P10632).
T1 sequence (P10632 whole entry): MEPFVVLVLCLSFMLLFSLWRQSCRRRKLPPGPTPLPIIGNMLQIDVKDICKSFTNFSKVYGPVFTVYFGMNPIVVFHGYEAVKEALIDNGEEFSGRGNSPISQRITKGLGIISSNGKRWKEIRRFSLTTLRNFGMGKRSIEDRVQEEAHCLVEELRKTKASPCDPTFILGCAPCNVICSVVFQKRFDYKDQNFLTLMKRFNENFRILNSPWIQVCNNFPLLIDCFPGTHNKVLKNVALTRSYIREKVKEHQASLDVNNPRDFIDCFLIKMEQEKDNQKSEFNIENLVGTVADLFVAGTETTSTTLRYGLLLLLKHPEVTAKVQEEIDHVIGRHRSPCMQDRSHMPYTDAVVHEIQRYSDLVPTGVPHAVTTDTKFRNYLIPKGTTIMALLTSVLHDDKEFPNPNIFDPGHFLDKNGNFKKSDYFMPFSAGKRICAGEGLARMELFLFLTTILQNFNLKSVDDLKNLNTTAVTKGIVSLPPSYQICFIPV
In words: Inhibition of CYP2C8 in human liver microsomes using paclitaxel as substrate after 5 to 60 mins by LC-MS/MS analysis. It counts as ADME, Microsome.

The target in data set [2] is T2, Cytochrome P450 2D6 (Homo sapiens, UniProt P10635). In words: Inhibition of CYP2D6 in human liver microsomes using dextromethorphan as substrate after 5 to 60 mins by LC-MS/MS analysis. It counts as ADME, Microsome.
T2 sequence (P10635 whole entry): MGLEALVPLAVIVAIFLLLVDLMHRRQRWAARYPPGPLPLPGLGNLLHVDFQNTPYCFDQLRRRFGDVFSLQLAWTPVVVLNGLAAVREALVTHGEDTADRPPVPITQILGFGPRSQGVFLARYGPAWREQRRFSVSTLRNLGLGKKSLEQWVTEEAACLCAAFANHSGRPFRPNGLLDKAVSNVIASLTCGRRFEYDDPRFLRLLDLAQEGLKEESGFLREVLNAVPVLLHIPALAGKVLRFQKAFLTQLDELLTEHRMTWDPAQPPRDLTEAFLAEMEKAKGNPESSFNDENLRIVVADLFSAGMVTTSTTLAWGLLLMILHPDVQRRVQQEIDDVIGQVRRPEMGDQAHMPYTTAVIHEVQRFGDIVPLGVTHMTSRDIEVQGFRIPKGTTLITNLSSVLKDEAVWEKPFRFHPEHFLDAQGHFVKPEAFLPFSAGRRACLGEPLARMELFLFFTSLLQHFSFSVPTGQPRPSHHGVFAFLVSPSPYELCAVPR
A short description of data set [3]: Blood clearance in Sprague-Dawley rat at 2.2 mg/kg, iv by LC-MS/MS analysis. More on the design: dose 2.2 mg/kg, route intravenous. The class given is ADME, organism-based. As to conditions: whole blood.
Data set [4] addresses Cytochrome P450 2C9 (Homo sapiens, UniProt P11712). In words: Inhibition of CYP2C9 in human liver microsomes using diclofenac as substrate after 5 to 60 mins by LC-MS/MS analysis. The class given is ADME, Microsome.
Data set [5] addresses Cytochrome P450 2C19 (Homo sapiens, UniProt P33261). The data set is described as follows: Inhibition of CYP2C19 in human liver microsomes using mephenytoin as substrate after 5 to 60 mins by LC-MS/MS analysis. It counts as ADME, Microsome.
Data set [6] addresses T3, Cytochrome P450 1A2 (Homo sapiens, UniProt P05177).
T3 sequence (P05177 whole entry): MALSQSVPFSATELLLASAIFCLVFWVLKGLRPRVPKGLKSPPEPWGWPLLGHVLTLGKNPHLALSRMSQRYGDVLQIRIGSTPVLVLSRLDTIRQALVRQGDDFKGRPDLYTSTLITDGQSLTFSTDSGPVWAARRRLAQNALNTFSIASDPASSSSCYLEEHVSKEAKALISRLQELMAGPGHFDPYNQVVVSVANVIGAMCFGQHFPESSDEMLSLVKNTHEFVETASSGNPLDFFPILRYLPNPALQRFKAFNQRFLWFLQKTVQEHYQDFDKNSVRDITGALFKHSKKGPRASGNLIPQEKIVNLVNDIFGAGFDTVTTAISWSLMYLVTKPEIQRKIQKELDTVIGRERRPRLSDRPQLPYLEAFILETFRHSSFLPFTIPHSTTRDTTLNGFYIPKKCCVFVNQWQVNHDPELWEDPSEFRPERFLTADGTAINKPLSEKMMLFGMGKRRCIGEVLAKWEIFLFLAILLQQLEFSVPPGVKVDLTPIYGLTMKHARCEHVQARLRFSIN
The data set is described as follows: Inhibition of CYP1A2 in human liver microsomes using phenacetin as substrate after 5 to 60 mins by LC-MS/MS analysis. The class given is ADME, Microsome.

The target of data set [7] is T4, Eukaryotic translation initiation factor 2-alpha kinase 3 (Homo sapiens, UniProt Q9NZJ5).
T4 sequence (Q9NZJ5 whole entry): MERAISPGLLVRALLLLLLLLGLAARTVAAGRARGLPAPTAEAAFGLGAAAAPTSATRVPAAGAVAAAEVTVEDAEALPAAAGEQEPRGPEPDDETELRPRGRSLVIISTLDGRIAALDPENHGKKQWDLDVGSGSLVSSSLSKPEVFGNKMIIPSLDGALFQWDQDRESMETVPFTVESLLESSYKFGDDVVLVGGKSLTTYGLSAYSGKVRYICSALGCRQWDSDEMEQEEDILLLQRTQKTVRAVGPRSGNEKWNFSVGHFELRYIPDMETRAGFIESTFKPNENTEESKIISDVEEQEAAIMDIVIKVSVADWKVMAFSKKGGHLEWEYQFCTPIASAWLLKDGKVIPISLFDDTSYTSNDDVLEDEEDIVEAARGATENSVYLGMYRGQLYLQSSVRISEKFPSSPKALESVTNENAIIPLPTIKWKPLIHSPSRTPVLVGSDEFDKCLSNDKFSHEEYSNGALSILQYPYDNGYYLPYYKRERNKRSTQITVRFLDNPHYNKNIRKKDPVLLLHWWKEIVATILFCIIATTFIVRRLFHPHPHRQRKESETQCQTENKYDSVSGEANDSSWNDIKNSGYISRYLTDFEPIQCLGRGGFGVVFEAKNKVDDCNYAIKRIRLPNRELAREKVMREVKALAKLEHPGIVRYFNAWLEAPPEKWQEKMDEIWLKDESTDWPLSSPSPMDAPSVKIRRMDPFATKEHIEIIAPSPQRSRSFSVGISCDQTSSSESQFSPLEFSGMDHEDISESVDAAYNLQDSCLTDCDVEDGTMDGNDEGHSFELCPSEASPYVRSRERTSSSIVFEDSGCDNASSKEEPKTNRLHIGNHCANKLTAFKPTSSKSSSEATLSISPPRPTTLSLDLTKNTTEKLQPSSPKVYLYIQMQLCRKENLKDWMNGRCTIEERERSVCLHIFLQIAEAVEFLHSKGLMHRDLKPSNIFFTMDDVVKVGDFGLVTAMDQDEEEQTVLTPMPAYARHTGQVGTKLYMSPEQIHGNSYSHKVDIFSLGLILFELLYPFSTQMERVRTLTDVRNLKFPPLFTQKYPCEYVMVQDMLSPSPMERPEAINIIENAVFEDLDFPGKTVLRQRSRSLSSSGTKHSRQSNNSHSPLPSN
The data set is described as follows: Inhibition of GST-tagged PERK cytoplasmic domain (536 to 1116) (unknown origin) assessed as biotinylated His6-tagged EIF2alpha phosphorylation preincubated for 30 mins followed by ATP and eIF2alpha addition measured after 1 hr by HTRF assay.

A short description of data set [8]: Blood clearance in CD1 mouse at 2 mg/kg, iv by LC-MS/MS analysis. The class given is ADME, organism-based. More on the design: dose 2 mg/kg, route intravenous. The conditions noted are these: whole blood.
The nature of data set [9]: Half life in Sprague-Dawley rat at 2.2 mg/kg, iv by LC-MS/MS analysis. It counts as ADME, organism-based. The arrangement: dose 2.2 mg/kg, route intravenous. As to conditions: in vivo.
Data set [10] can be described thus: AUC (0 to infinity) in beagle dog at 5.2 mg/kg, po by LC-MS/MS analysis. The conditions noted are these: plasma. The class given is ADME, organism-based, Canis lupus familiaris. The arrangement: time infinity, dose 5.2 mg/kg, route oral.
Data set [11] can be described thus: Oral bioavailability in beagle dog at 5.2 mg/kg by LC-MS/MS analysis. The conditions noted are these: in vivo. The class given is ADME, organism-based, Canis lupus familiaris.
Data set [12] has as its target T2, Cytochrome P450 2D6. In words: Inhibition of CYP2D6 in human liver microsomes using bufuralol as substrate after 5 to 60 mins by LC-MS/MS analysis. The class given is ADME, Microsome.
Data set [13] can be described thus: AUC (0 to infinity) in CD1 mouse at 13.4 mg/kg, po by LC-MS/MS analysis. The class given is ADME, organism-based. More on the design: time infinity, dose 13.4 mg/kg, route oral. The conditions noted are these: plasma.
Data set [14] concerns the target T4, Eukaryotic translation initiation factor 2-alpha kinase 3. In words: Inhibition of thapsigargin-induced autophosphorylation of PERK in human A549 cells preincubated for 1 hr followed by thapsigargin-induction measured after 1 hr by Western blotting analysis. The class given is cell-based.
A short description of data set [15]: Blood clearance in beagle dog at 2.9 mg/kg, iv by LC-MS/MS analysis. The class given is ADME, organism-based, Canis lupus familiaris. More on the design: dose 2.9 mg/kg, route intravenous. As to conditions: whole blood.
Data set [16] in a line: AUC (0 to infinity) in Sprague-Dawley rat at 4.3 mg/kg, po by LC-MS/MS analysis. The arrangement: time infinity, dose 4.3 mg/kg, route oral. As to conditions: plasma. It counts as ADME, organism-based.
The target in data set [17] is Eukaryotic translation initiation factor 2-alpha kinase 1 (Homo sapiens, UniProt Q9BQI3). The data set is described as follows: Inhibition of HRI (unknown origin) assessed as EIF2AK1 phosphorylation.
Chain of Eukaryotic translation initiation factor 2-alpha kinase 1 (Q9BQI3 whole entry): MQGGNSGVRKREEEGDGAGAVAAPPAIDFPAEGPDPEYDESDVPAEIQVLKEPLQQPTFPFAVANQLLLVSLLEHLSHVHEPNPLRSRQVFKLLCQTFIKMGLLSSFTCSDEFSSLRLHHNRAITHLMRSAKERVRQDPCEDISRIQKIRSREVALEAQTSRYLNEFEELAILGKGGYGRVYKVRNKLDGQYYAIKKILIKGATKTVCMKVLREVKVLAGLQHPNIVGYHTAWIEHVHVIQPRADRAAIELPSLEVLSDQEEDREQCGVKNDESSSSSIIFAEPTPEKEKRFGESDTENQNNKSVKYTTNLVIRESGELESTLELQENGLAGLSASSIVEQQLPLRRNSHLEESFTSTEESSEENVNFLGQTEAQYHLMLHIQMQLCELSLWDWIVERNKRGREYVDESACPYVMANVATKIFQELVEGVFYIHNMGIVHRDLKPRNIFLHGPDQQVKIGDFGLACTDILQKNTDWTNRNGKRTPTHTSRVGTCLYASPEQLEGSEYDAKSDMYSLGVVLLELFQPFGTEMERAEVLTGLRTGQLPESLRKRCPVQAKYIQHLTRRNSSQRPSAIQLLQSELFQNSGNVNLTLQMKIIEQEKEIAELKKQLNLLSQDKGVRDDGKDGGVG
Data set [18] in a line: Half life in beagle dog at 2.9 mg/kg, iv by LC-MS/MS analysis. It counts as ADME, organism-based, Canis lupus familiaris. The arrangement: dose 2.9 mg/kg, route intravenous. The conditions noted are these: in vivo.
Data set [19] is described as follows: Oral bioavailability in CD1 mouse at 13.4 mg/kg by LC-MS/MS analysis. It counts as ADME, organism-based. The conditions noted are these: in vivo.
Data set [20] deals with eIF-2-alpha kinase GCN2 (Homo sapiens, UniProt Q9P2K8). In words: Inhibition of GCN2 (unknown origin) assessed as EIF2AK4 phosphorylation.
Chain of eIF-2-alpha kinase GCN2 (Q9P2K8 whole entry): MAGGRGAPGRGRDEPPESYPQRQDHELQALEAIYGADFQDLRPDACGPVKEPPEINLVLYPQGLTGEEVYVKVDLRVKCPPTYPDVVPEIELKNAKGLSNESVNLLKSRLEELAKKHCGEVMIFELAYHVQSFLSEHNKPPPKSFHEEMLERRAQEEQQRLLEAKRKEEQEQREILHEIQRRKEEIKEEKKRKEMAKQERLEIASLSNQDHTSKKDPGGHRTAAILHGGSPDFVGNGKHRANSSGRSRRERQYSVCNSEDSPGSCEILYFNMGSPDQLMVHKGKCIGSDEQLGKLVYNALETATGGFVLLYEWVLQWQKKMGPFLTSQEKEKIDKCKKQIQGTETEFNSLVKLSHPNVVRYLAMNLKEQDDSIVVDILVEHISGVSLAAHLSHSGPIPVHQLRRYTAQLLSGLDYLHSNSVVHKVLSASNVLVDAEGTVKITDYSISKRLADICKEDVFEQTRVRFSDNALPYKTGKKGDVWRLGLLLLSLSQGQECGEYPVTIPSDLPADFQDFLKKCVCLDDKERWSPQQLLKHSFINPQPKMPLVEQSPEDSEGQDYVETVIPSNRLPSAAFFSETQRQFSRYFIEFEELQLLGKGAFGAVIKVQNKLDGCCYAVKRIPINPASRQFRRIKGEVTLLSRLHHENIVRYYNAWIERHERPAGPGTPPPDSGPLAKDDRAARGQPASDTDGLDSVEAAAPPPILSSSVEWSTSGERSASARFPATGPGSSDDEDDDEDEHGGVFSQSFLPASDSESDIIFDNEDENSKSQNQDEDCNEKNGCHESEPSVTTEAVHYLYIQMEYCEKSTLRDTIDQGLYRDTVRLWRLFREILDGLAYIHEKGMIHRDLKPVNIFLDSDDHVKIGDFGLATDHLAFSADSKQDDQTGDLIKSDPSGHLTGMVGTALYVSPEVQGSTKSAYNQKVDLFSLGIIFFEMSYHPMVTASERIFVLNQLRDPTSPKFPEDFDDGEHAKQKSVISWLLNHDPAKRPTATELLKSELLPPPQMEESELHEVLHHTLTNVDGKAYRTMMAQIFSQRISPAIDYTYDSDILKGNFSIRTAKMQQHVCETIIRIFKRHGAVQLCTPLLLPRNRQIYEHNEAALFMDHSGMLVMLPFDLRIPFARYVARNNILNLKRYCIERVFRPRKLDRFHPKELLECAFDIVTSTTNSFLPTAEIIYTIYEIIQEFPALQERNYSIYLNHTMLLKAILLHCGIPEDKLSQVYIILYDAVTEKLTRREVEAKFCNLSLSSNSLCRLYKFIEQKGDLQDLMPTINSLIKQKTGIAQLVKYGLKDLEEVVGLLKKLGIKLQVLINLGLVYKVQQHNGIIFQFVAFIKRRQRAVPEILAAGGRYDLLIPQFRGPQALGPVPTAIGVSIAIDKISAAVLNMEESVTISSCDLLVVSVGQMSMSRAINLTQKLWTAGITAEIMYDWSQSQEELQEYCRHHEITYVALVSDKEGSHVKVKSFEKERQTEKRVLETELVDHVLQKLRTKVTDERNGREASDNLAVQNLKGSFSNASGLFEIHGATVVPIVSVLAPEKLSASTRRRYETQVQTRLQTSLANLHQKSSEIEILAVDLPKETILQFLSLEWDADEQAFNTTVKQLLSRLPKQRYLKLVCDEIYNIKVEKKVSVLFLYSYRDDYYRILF
Data set [21] in a line: Volume of distribution at steady state in CD1 mouse at 2 mg/kg, iv by LC-MS/MS analysis. As to conditions: in vivo, read-out: Vdss. It counts as ADME, organism-based. The arrangement: dose 2 mg/kg, route intravenous.
The nature of data set [22]: Volume of distribution at steady state in Sprague-Dawley rat at 2.2 mg/kg, iv by LC-MS/MS analysis. As to conditions: in vivo, read-out: Vdss. More on the design: dose 2.2 mg/kg, route intravenous. The class given is ADME, organism-based.
Data set [23] in a line: Oral bioavailability in Sprague-Dawley rat at 4.3 mg/kg by LC-MS/MS analysis. As to conditions: in vivo. The class given is ADME, organism-based.
The target in data set [24] is Interferon-induced, double-stranded RNA-activated protein kinase (Homo sapiens, UniProt P19525). In words: Inhibition of PKR (unknown origin) assessed as EIF2AK2 phosphorylation.
Chain of Interferon-induced, double-stranded RNA-activated protein kinase (P19525 whole entry): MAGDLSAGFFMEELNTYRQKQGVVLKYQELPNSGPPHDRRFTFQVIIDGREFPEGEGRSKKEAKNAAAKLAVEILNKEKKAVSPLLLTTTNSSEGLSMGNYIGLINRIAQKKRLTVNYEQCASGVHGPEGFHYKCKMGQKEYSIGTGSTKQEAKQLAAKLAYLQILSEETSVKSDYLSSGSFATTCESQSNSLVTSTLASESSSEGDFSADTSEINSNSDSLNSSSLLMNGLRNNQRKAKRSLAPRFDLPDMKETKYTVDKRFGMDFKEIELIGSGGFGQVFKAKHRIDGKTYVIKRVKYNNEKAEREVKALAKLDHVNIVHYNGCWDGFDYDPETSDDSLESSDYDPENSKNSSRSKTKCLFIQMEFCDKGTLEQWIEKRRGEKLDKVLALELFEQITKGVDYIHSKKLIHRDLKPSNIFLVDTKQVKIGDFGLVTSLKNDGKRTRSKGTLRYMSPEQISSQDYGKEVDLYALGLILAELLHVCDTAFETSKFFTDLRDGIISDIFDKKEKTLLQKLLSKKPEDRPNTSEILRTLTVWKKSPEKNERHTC
The nature of data set [25]: AUC (0 to infinity) in Sprague-Dawley rat at 2.2 mg/kg, iv by LC-MS/MS analysis. The class given is ADME, organism-based. More on the design: time infinity, dose 2.2 mg/kg, route intravenous. The conditions noted are these: plasma.
The nature of data set [26]: Half life in CD1 mouse at 2 mg/kg, iv by LC-MS/MS analysis. The class given is ADME, organism-based. The arrangement: dose 2 mg/kg, route intravenous. The conditions noted are these: in vivo.
Data set [27] can be described thus: AUC (0 to infinity) in beagle dog at 2.9 mg/kg, iv by LC-MS/MS analysis. As to conditions: plasma. The class given is ADME, organism-based, Canis lupus familiaris. More on the design: time infinity, dose 2.9 mg/kg, route intravenous.
Data set [28] in a line: AUC (0 to infinity) in CD1 mouse at 2 mg/kg, iv by LC-MS/MS analysis. It counts as ADME, organism-based. More on the design: time infinity, dose 2 mg/kg, route intravenous. As to conditions: plasma.
The nature of data set [29]: Volume of distribution at steady state in beagle dog at 2.9 mg/kg, iv by LC-MS/MS analysis. The class given is ADME, organism-based, Canis lupus familiaris. The arrangement: dose 2.9 mg/kg, route intravenous. The conditions noted are these: in vivo, read-out: Vdss.

Chain of Cytochrome P450 2C19 (P33261 whole entry): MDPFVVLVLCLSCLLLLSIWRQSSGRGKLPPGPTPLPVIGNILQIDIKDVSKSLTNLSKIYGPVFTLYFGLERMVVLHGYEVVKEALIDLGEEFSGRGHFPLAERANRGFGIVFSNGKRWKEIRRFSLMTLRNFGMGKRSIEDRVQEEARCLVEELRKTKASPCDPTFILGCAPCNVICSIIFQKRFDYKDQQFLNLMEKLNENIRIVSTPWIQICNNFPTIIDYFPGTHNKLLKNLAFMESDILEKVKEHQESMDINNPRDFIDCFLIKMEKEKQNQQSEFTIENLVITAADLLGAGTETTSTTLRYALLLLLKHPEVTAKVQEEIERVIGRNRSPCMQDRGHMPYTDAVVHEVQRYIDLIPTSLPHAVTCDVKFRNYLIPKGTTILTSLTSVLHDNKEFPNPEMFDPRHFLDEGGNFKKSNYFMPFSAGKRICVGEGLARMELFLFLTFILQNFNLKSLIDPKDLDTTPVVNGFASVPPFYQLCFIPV
Chain of Cytochrome P450 2C9 (P11712 whole entry): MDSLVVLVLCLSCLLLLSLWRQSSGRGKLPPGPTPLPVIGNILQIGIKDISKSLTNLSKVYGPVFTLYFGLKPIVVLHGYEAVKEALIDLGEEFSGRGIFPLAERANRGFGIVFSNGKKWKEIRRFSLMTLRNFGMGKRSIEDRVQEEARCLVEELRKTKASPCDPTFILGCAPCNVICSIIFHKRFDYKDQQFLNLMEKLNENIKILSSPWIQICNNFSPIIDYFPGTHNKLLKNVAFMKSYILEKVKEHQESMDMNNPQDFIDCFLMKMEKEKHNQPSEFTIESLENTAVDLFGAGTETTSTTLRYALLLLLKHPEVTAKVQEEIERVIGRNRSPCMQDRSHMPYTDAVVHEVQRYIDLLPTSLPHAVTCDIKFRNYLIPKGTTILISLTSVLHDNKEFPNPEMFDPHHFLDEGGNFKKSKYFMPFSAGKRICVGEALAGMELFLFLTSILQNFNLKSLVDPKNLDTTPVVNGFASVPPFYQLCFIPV

For `Cn1cc(-c2ccc3c(c2)CCN3C(=O)Cc2cccc(C(F)(F)F)c2)c2c(N)ncnc21`, the IC50 was 0.89 µM in [1]; 23 µM in data set [2]; 4.5 µM in data set [4]; 7 µM in [5]; 21 µM in data set [6]. This compound also gave a clearance in data set [3] of 21.5 mL/min/kg.

With `Cn1cc(-c2ccc3c(c2)CCN3C(=O)Cc2cccnc2)c2c(N)ncnc21`, the 50% inhibitory concentration (IC50) in data set [7] turned out to be 0.0234 µM.

With `Cn1cc(-c2ccc3c(c2)CCN3C(=O)Cc2ccccn2)c2c(N)ncnc21`, the IC50 in data set [7] was 0.0191 µM.

Turning to `Cn1cc(-c2ccc3c(c2)CCN3C(=O)Cc2ccncc2)c2c(N)ncnc21`, in [7], the IC50 worked out at 0.0638 µM.

Regarding `Cc1ccn(CC(=O)N2CCc3cc(-c4cn(C)c5ncnc(N)c45)ccc32)n1`, the IC50 in data set [7] was 0.0575 µM.

As to `Cc1cccc(CC(=O)N2CCc3c2ccc(-c2cn(C)c4ncnc(N)c24)c3F)n1`, the clearance was determined as 10.5 mL/min/kg in data set [8], 15.5 mL/min/kg in [15] and 9.5 mL/min/kg in [3]. The half-inhibitory concentration (IC50) in data set [1] is above 25 µM; in data set [12], above 25 µM; in data set [14], 0.03 µM; in data set [7] it was 0.0008 µM; in data set [17], 0.46 µM; in [4], 24.7 µM. For the same compound, the IC50 in [5] was above 25 µM; in data set [20], 3.39 µM; in data set [24], 0.905 µM; in data set [6], above 25 µM. The results for the half-life in data set [9], in data set [18] and in data set [26] were 1.4 h, 3.1 h and 1.25 h, respectively. Moreover, the AUC(0-inf) in data set [10] turned out to be 6210 ng·h/mL; in data set [13], 13400 ng·h/mL; in [16] it was 8020 ng·h/mL; in [25], 3920 ng·h/mL; in data set [27] it was 3130 ng·h/mL; in [28], 3270 ng·h/mL. The bioavailability stood at 100% in data set [11], 52% in [19] and 100% in [23]. In addition, the Vd in [21] turned out to be 0.72 L/kg; in [22], 0.6 L/kg; in data set [29], 2.8 L/kg.

The values are drawn from ChEMBL document CHEMBL2440009, “Discovery of GSK2656157: An Optimized PERK Inhibitor Selected for Preclinical Development” (ACS Med Chem Lett, 2013).
